{
  "source": "ChEMBL document CHEMBL1134827",
  "about": "“Design and synthesis of novel 2,3-dihydro-1H-isoindoles with high affinity and selectivity for the dopamine D3 receptor” (Bioorg Med Chem Lett, 2001)",
  "key": {"[1]": {"target": "D(3) dopamine receptor (Rattus norvegicus) (UniProt P19020)", "sequence (P19020 whole entry)": "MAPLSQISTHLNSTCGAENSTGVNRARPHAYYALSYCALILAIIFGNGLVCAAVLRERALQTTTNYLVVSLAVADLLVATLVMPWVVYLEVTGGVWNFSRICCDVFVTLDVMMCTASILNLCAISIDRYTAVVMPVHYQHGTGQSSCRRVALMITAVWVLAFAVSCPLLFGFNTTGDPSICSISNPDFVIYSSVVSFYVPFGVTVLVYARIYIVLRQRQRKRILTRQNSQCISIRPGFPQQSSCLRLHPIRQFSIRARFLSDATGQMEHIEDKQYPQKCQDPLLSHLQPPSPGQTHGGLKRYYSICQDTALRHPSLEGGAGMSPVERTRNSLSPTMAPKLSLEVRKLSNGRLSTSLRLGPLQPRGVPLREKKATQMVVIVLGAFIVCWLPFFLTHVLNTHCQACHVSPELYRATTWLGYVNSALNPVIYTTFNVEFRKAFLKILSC", "assay": "Antagonistic activity at D3 receptor using in vitro functional assay"}, "[2]": {"target": "T1, 5-hydroxytryptamine receptor 2C (Homo sapiens, UniProt P28335)", "T1 sequence (P28335 whole entry)": "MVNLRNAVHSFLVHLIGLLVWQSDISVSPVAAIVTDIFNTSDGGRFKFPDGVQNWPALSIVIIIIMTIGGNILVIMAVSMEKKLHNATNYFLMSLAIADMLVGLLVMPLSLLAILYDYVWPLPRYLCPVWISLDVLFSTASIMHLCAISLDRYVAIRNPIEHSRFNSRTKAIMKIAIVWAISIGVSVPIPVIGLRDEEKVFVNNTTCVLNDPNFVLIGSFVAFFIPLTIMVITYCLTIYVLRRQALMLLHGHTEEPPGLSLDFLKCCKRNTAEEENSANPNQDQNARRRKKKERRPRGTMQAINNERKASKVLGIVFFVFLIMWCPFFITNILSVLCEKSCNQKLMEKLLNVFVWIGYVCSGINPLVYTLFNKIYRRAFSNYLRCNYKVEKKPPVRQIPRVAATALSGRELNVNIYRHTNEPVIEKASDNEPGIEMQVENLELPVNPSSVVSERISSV", "assay": "Evaluated for the binding affinity to 5-hydroxytryptamine 2C receptor"}, "[3]": {"target": "T2, Alpha-1B adrenergic receptor (Homo sapiens, UniProt P35368)", "T2 sequence (P35368 whole entry)": "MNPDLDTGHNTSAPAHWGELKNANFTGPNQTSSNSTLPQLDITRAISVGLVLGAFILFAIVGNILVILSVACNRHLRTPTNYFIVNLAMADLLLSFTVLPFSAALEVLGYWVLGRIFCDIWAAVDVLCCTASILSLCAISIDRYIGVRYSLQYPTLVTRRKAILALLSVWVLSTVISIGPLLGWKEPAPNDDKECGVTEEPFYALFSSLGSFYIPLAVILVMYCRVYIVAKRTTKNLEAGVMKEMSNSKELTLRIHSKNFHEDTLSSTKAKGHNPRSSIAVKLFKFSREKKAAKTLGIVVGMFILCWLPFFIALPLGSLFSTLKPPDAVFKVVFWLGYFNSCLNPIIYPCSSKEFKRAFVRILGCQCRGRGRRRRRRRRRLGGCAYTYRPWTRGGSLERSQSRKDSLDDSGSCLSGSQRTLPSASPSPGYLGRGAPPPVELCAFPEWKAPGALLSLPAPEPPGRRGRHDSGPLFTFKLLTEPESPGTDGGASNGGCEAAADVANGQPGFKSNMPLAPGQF", "assay": "Evaluated for the binding affinity to alpha 1B receptor"}, "[4]": {"target": "5-hydroxytryptamine receptor 1D (Homo sapiens, UniProt P28221)", "sequence (P28221 whole entry)": "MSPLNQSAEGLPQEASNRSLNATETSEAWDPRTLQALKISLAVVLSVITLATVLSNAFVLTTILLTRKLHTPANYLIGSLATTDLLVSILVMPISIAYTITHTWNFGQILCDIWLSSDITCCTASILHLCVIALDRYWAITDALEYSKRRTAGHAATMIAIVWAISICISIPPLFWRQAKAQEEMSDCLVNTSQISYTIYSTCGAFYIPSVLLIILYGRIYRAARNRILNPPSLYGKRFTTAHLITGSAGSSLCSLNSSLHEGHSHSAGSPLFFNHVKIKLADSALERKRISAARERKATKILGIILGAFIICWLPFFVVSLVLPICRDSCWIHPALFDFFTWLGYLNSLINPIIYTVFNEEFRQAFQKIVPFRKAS", "assay": "Evaluated for the binding affinity against 5-hydroxytryptamine 1D receptor"}, "[5]": {"assay": "Evaluated for the low clearance in rat (in vivo)", "format": "ADME, organism-based", "settings": "blood, read-out: CLb"}, "[6]": {"assay": "Evaluated for the bioavailability in rat (in vivo)", "format": "ADME, organism-based"}, "[7]": {"target": "5-hydroxytryptamine receptor 6 (Homo sapiens, UniProt P50406)", "sequence (P50406 whole entry)": "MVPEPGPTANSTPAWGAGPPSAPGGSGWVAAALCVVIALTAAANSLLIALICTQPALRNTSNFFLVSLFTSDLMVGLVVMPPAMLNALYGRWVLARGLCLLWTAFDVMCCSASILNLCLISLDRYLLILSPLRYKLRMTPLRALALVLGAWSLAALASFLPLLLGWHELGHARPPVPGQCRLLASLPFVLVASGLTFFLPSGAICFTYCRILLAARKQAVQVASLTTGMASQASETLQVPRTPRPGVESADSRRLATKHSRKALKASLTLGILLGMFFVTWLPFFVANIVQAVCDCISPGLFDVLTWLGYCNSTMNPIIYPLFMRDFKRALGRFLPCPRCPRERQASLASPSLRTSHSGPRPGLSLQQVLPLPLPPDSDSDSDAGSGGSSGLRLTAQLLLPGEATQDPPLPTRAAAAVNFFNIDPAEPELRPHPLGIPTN", "assay": "Evaluated for the binding affinity towards 5-hydroxytryptamine 6 receptor"}, "[8]": {"assay": "Evaluated for the half life in rat (in vivo)", "format": "ADME, organism-based"}, "[9]": {"target": "5-hydroxytryptamine receptor 2B (Homo sapiens, UniProt P41595)", "sequence (P41595 whole entry)": "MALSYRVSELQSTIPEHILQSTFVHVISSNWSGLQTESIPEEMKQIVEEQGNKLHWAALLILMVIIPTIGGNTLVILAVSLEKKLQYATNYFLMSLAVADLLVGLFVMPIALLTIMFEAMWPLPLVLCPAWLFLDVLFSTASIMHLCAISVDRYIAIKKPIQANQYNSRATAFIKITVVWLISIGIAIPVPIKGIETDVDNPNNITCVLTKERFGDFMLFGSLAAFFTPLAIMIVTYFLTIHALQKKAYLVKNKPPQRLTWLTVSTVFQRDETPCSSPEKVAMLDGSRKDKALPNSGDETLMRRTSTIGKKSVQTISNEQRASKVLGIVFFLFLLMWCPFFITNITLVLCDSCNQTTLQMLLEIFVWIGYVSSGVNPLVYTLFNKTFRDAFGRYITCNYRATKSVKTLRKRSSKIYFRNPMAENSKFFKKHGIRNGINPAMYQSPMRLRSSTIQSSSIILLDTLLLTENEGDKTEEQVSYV", "assay": "Evaluated for the binding affinity to 5-HT 2B receptor"}, "[10]": {"target": "T3, 5-hydroxytryptamine receptor 1A (Homo sapiens, UniProt P08908)", "T3 sequence (P08908 whole entry)": "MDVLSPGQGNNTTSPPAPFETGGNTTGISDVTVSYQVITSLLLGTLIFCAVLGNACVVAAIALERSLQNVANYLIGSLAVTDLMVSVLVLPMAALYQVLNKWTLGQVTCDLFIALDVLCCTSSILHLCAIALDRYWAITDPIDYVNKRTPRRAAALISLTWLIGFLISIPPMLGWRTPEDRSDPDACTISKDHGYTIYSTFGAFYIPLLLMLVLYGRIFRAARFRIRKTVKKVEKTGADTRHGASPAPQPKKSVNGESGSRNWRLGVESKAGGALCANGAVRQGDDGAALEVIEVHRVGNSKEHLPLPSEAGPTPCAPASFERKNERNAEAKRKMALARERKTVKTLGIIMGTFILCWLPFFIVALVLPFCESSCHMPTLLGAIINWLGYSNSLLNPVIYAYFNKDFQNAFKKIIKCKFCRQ", "assay": "Evaluated for the binding affinity to 5-hydroxytryptamine 1A receptor"}, "[11]": {"target": "5-hydroxytryptamine receptor 2A (Homo sapiens, UniProt P28223)", "sequence (P28223 whole entry)": "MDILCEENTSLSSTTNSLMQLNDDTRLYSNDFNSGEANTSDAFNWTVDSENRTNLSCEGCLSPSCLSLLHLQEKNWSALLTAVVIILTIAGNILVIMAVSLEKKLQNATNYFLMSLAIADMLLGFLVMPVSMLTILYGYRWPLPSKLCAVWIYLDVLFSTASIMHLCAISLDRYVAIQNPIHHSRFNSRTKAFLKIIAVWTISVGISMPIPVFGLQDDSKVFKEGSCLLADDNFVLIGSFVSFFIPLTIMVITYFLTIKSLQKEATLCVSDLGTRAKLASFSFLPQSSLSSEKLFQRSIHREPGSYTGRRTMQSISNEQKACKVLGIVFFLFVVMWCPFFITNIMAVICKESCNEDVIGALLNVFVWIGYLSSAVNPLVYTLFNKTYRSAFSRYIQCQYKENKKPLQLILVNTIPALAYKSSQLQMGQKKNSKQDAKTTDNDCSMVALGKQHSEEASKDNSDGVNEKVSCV", "assay": "Evaluated for the binding affinity towards 5-hydroxytryptamine 2A receptor"}, "[12]": {"target": "5-hydroxytryptamine receptor 1B (Homo sapiens, UniProt P28222)", "sequence (P28222 whole entry)": "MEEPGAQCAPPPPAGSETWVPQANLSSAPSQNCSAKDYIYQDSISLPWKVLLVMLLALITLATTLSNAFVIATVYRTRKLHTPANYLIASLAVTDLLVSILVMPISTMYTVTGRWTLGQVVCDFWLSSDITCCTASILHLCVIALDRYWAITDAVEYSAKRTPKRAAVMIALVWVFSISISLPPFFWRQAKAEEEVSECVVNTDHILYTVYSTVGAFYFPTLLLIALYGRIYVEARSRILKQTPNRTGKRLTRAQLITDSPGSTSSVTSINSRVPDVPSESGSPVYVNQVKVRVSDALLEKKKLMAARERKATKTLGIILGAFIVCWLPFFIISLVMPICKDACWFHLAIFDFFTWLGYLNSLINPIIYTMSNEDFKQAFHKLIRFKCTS", "assay": "Evaluated for the binding affinity to 5-hydroxytryptamine 1B receptor"}, "D(3) dopamine receptor": {"target": "D(3) dopamine receptor (Homo sapiens, UniProt P35462)", "sequence (P35462 whole entry)": "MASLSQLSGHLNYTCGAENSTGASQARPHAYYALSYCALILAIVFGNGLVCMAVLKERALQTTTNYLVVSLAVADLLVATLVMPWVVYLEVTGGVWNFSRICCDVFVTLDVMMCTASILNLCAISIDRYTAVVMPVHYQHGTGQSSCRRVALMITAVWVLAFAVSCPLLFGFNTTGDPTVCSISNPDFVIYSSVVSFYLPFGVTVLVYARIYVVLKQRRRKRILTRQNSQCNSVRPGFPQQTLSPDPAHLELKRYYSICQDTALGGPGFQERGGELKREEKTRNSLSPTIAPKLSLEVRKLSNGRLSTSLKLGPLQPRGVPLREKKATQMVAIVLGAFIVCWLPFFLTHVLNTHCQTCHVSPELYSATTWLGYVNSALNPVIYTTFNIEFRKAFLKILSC", "assay": "Displacement of [125I]iodosulpiride from human Dopamine receptor D3 expressed in CHO cells", "format": "cell-based"}, "D(2) dopamine receptor": {"target": "D(2) dopamine receptor (Homo sapiens, UniProt P14416)", "sequence (P14416 whole entry)": "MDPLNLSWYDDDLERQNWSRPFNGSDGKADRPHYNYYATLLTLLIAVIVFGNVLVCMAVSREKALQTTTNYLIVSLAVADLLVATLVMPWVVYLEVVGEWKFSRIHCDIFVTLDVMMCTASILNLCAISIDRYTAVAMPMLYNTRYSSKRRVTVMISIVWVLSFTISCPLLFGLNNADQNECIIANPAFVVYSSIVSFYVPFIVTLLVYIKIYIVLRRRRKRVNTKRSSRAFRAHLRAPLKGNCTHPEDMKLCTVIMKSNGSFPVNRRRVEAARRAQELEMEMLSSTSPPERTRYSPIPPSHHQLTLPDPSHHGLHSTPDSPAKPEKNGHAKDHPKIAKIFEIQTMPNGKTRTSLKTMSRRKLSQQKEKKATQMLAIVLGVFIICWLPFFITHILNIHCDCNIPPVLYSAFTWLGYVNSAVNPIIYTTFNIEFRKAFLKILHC", "assay": "Displacement of [125I]iodosulpiride from human Dopamine receptor D2 expressed in CHO cells", "format": "cell-based"}, "[13]": {"target": "5-hydroxytryptamine receptor 7 (Homo sapiens, UniProt P34969)", "sequence (P34969 whole entry)": "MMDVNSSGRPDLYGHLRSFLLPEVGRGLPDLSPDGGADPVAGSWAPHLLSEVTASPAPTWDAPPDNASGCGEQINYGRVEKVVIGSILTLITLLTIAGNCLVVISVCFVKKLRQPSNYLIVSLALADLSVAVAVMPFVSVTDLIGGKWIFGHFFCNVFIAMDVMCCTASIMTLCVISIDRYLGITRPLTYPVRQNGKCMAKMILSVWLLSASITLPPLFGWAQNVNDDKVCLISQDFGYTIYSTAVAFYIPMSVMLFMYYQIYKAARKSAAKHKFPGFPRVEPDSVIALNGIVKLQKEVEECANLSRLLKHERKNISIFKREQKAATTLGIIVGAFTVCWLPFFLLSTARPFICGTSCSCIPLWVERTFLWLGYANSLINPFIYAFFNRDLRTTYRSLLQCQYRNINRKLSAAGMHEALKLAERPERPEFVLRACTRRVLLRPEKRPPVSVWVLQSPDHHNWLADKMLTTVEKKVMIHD", "assay": "Evaluated for the binding affinity to 5-hydroxytryptamine 7 receptor"}},
  "data": [
    {"smiles": "CS(=O)(=O)Oc1ccc2c(c1)CN(CC[C@H]1CC[C@H](NC(=O)/C=C/c3ccc(F)cc3)CC1)C2", "values": [
      {"measurement": "pKb", "setting": "[1]", "result": 8.3},
      {"measurement": "Ki", "setting": "[2]", "result": "> 7940", "unit": "nM"},
      {"measurement": "Ki", "setting": "[3]", "result": "> 5010", "unit": "nM"},
      {"measurement": "Ki", "setting": "[4]", "result": 1260, "unit": "nM"},
      {"measurement": "clearance", "setting": "[5]", "result": 14, "unit": "mL/min/kg"},
      {"measurement": "bioavailability", "setting": "[6]", "result": 77, "unit": "%"},
      {"measurement": "Ki", "setting": "[7]", "result": "> 10000", "unit": "nM"},
      {"measurement": "half-life", "setting": "[8]", "result": 5.2, "unit": "h"},
      {"measurement": "Ki", "setting": "[9]", "result": "> 1000", "unit": "nM"},
      {"measurement": "Ki", "setting": "[10]", "result": 3160, "unit": "nM"},
      {"measurement": "Ki", "setting": "[11]", "result": "> 5010", "unit": "nM"},
      {"measurement": "Ki", "setting": "[12]", "result": 5010, "unit": "nM"},
      {"measurement": "Ki", "setting": "D(3) dopamine receptor", "result": 5.01, "unit": "nM"},
      {"measurement": "Ki", "setting": "D(2) dopamine receptor", "result": 501, "unit": "nM"},
      {"measurement": "Ki", "setting": "[13]", "result": "> 3980", "unit": "nM"}
    ]},
    {"smiles": "N#Cc1ccc2c(c1)CN(CC[C@H]1CC[C@H](NC(=O)/C=C/c3ccc(F)cc3)CC1)C2", "values": [
      {"measurement": "Ki", "setting": "D(3) dopamine receptor", "result": 12.6, "unit": "nM"},
      {"measurement": "Ki", "setting": "D(2) dopamine receptor", "result": 631, "unit": "nM"}
    ]},
    {"smiles": "COc1ccc2c(c1)CN(CC[C@H]1CC[C@H](NC(=O)/C=C/c3ccc(F)cc3)CC1)C2", "values": [
      {"measurement": "Ki", "setting": "D(3) dopamine receptor", "result": 7.94, "unit": "nM"},
      {"measurement": "Ki", "setting": "D(2) dopamine receptor", "result": 200, "unit": "nM"}
    ]},
    {"smiles": "N#Cc1ccc2c(c1)CN(CC[C@H]1CC[C@H](NC(=O)c3cc4ccccc4[nH]3)CC1)C2", "values": [
      {"measurement": "Ki", "setting": "D(3) dopamine receptor", "result": 25.1, "unit": "nM"},
      {"measurement": "Ki", "setting": "D(2) dopamine receptor", "result": 2510, "unit": "nM"}
    ]},
    {"smiles": "O=C(/C=C/c1ccc(F)cc1)N[C@H]1CC[C@H](CCN2Cc3ccc(C(F)(F)F)cc3C2)CC1", "values": [
      {"measurement": "Ki", "setting": "D(3) dopamine receptor", "result": 10, "unit": "nM"},
      {"measurement": "Ki", "setting": "D(2) dopamine receptor", "result": 398, "unit": "nM"}
    ]},
    {"smiles": "N#Cc1ccc2c(c1)CN(CC[C@H]1CC[C@H](NC(=O)c3ccnc4ccccc34)CC1)C2", "values": [
      {"measurement": "Ki", "setting": "D(3) dopamine receptor", "result": 63.1, "unit": "nM"},
      {"measurement": "Ki", "setting": "D(2) dopamine receptor", "result": 2510, "unit": "nM"}
    ]},
    {"smiles": "COc1cccc(/C=C/C(=O)N[C@H]2CC[C@H](CCN3Cc4ccc(C#N)cc4C3)CC2)c1", "values": [
      {"measurement": "Ki", "setting": "D(3) dopamine receptor", "result": 10, "unit": "nM"},
      {"measurement": "Ki", "setting": "D(2) dopamine receptor", "result": 1000, "unit": "nM"}
    ]},
    {"smiles": "O=C(/C=C/c1ccc(F)cc1)N[C@H]1CC[C@H](CCN2Cc3ccc(Br)cc3C2)CC1", "values": [
      {"measurement": "Ki", "setting": "D(3) dopamine receptor", "result": 3.16, "unit": "nM"},
      {"measurement": "Ki", "setting": "D(2) dopamine receptor", "result": 100, "unit": "nM"}
    ]}
  ]
}
